Legend:
[1] = test system: patients suffering from post-stroke depression (PSD); assay: Clinical study of maraviroc in patients suffering from post-stroke depression (PSD); assay type: in vivo, human
Method: A clinical study to evaluate the safety, tolerability and efficacy of maraviroc in patients suffering from post-stroke depression (PSD) was performed as follows:
Ten men and women aged 50 to 86 years who experience stroke, i.e., cerebral infarction or transient ischemic attack (TIA) prior to the initiation of the study were enrolled to the study. These subjects also experienced a major depressive episode that develops within 12 months from the stroke/TIA. Clinical diagnosis of stroke was performed according to the World Health Organization Monica Project.
Exclusion criteria comprise e.g. 1) significant acute neurologic illness including: impaired consciousness, Parkinson's disease, Huntington's chorea, progressive supranuclear paralysis, brain tumor, subdural hematoma, multiple sclerosis, hydrocephalus, Binswanger's disease, or severe aphasia, 2) patients diagnosed with dementia or significant cognitive impairment as defined by a MoCA score <20 at screening, or other neurological conditions (multiple sclerosis, Parkinson's disease, epilepsy, Huntington's chorea, brain tumor, subdural hematoma, multiple sclerosis, hydrocephalus, or Binswanger's disease), 3) positive serology for Hepatitis B or C; or for HIV.
Each subject received 300 mg maraviroc daily or 150 mg daily for 10 weeks. Post-treatment follow-up was conducted for 8 weeks after the last dose of Maraviroc. During the 10 weeks of maraviroc treatment the subjects were evaluated every two weeks, and during the 8 weeks of follow-up the subjects were evaluated at the 4th and 8th week after the last dose of maraviroc.
The subjects were evaluated for the efficacy of maraviroc by assessing the improvement in depressive symptoms determined by a change from baseline (i.e., Day 1 pre-dose) in the Montgomery-Asberg Depression Rating Scale (MADRS) total score. Other assessments included, for example, assessment of depressive symptoms by the 16-item Quick Inventory of Depressive Symptomatology-Self Report (QIDS-SR16); assessment of remission, defined as a MADRS total score ≤10; assessment of response, defined as a ≥50% reduction from baseline in MADRS total score; evaluation of symptoms of anxiety as assessed by the Generalized Anxiety Disorder 7-item Scale (GAD-7)—each item is rated on a 4-point scale (0 to 3), with the total score range from 0-21 (higher scores indicating more anxiety); and evaluation of cognitive status, as assessed by cognitive score based on repeatable computerized battery of cognitive tests (Neurotrax) and Montreal Cognitive Assessment (MoCA).
Additional assessments include e.g. the clinical global impression-improvement (CGI-I), a 7 point scale that requires the clinician to assess how much the patient's illness has improved or worsened relative to a baseline state at the beginning of the intervention; the clinical global impression-severity (CGI-S), which evaluates the severity of psychopathology from 1 to 7, and provides an overall clinician-determined summary measure that takes into account all available information, including knowledge of the subject's history, psychosocial circumstances, symptoms, behavior, and the impact of the symptoms on the subject's ability to function; Patient Global Impression scales, commonly used measures of symptom severity, treatment response and the efficacy of treatments; the patient global impression-severity (PGI-S), that provides an overall patient-rated summary measure that assesses the severity of the subject's MDD; the patient global impression of change (PGI-C) which provides an overall patient-rated summary that assesses subject perception of change in their MDD since starting study treatment; the EuroQol Group; 5 dimension (EQ-5D) which is a standardized 2-part instrument for use as a measure of health outcome, primarily designed for self-completion by respondents. […]

[2] = test system: simian immunodeficiency virus (SIV)-mediated CNS disease; details: rhesus macaques; cited from earlier work
[3] = test system: hemiparkinsonian monkeys; details: cited from earlier work
[4] = test system: subjects with CCR5-tropic HIV-1; details: cited from earlier work

## Cc1nnc(C(C)C)n1[C@@H]1C[C@H]2CC[C@@H](C1)N2CC[C@H](NC(=O)C1CCC(F)(F)CC1)c1ccccc1 [maraviroc]
[1]; PSD patients, maraviroc 300 mg daily, GAD-7
  effect on anxiety symptoms: effective in reducing anxiety symptoms
[1]; PSD patients, maraviroc 300 mg once daily oral
  side effects reported by the participants during the study: 1 transient impotence, 1 severe constipation (drug-unrelated)
[1]; PSD patients, maraviroc 300 mg once daily oral, 10 weeks, initial MADRS about 35-40
  MADRS score following 10 weeks of treatment: 5-10
[1]; PSD patients, maraviroc 300 mg once daily oral, initial MADRS >34
  MADRS score, best outcome (normal/symptom-absent, remission): < 7
[1]; Patient 1, 10 weeks maraviroc 300 mg daily, add-on therapy, GAD-7 at admission 17 (severe)
  GAD-7 at data collection: 10
[1]; Patient 2, 10 weeks maraviroc 300 mg daily, add-on therapy, GAD-7 at admission 6 (mild)
  GAD-7 at data collection: 6
[1]; Patient 3, week 7 of maraviroc 300 mg daily, add-on therapy, GAD-7 at admission 8 (mild)
  GAD-7 at data collection: 7
[1]; Patient 4, maraviroc monotherapy 300 mg daily, CGI=5 (markedly ill) at admission
  CGI severity (CGI-S) after four weeks of treatment: 3
[1]; Patient 4, week 4 of maraviroc 300 mg daily, monotherapy, GAD-7 at admission 14 (moderate)
  GAD-7 at data collection: 8
[1]; all 4 PSD patients, maraviroc 300 mg once daily oral, 4-10 weeks
  depressive symptoms on quick inventory of depressive symptoms-self report (QIDS-SR): All patients improved their depressive symptoms
[1]; all 4 PSD patients, maraviroc 300 mg once daily oral, 4-10 weeks, initial MADRS about 35-40 (>34, severe)
  MADRS score after treatment: < 20
[1]; all 4 PSD patients, maraviroc 300 mg once daily oral, add-on (patients 1-3) or monotherapy (patient 4)
  time from first dose to beginning of treatment effects (time to response), depressive scores evaluated by senior psychiatrist: 1-2 weeks
[1]; all 4 PSD patients, self-report depressive scores, maraviroc 300 mg once daily oral
  time from first dose to beginning of self-reported treatment effect: 1-2 weeks
[1]; human PSD patients
  safety and tolerability: well-tolerated without safety concerns
[2]
  SIV-mediated CNS disease (SIV RNA in CSF and brain, CD68 immunostaining, axonal APP immunostaining): inhibited simian immunodeficiency virus (SIV)-mediated CNS disease
[3]
  effect on the nigrostriatum: protects the nigrostriatum
  infiltration of T cells into the central nervous system: attenuates the infiltration of T cells into the central nervous system
[4]; pooled data from two trials in subjects with CCR5-tropic HIV-1
  potential treatment-emergent adverse events: Depressive disorders and anxiety symptoms
[4]; treatment-experienced subjects
  most common adverse events, at higher frequency compared with placebo: upper respiratory tract infections, cough, pyrexia, rash, and dizziness

From patent US12685724B2, “Antidepressant therapy” (ICHILOV TECH LTD., priority 2020, dated 2026)
